In PubChem BioAssay (NCI):
Values joined by “and” are separate entries in the source; they are usually repeats but may differ in a detail not shown here. Equal values may be shown once.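 Grown in 96-well plates, cells were treated for 48 hours with each compound at five concentrations. Insufficient inhibition: endpoint recorded as highest concentration tested. GI50: concentration for 50% inhibition of growth. TGI is the concentration that stops growth completely.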

How the values were obtained:
Test in all cases: NCI tumour cell line growth inhibition, 48 h
[1] = tested on: HOP-92 NSCLC
[2] = tested on: 786-0 renal
[3] = tested on: OVCAR-4 ovarian
[4] = tested on: XF 498 CNS
[5] = tested on: NCI-H522 lung
[6] = tested on: HT29 colon
[7] = tested on: U251 CNS
[8] = tested on: RPMI-8226 leukemia
[9] = tested on: MALME-3M melanoma
[10] = tested on: SK-MEL-2 melanoma
[11] = tested on: TK-10 renal
[12] = tested on: A549 NSCLC
[13] = tested on: SN12C renal
[14] = tested on: HL-60(TB) leukemia
[15] = tested on: BT-549 breast
[16] = tested on: HCT-116 colon
[17] = tested on: SF-268 CNS
[18] = tested on: M19-MEL melanoma
[19] = tested on: DLD-1 colon
[20] = tested on: SNB-78 CNS
[21] = tested on: DU-145 prostate
[22] = tested on: OVCAR-5 ovarian
[23] = tested on: HOP-62 NSCLC
[24] = tested on: T-47D breast
[25] = tested on: MCF7 breast
[26] = tested on: HCC-2998 colon
[27] = tested on: RXF-631 renal
[28] = tested on: SW-620 colon
[29] = tested on: SR leukemia
[30] = tested on: UO-31 renal
[31] = tested on: SF-539 CNS
[32] = tested on: NCI-H23 lung
[33] = tested on: OVCAR-8 ovarian
[34] = tested on: K-562 leukemia
[35] = tested on: ACHN renal
[36] = tested on: P388/ADR leukemia
[37] = tested on: P388 leukemia
[38] = tested on: SNB-75 CNS
[39] = tested on: MDA-N
[40] = tested on: SK-OV-3 ovarian
[41] = tested on: UACC-257 melanoma
[42] = tested on: MDA-MB-231 breast
[43] = tested on: UACC-62 melanoma
[44] = tested on: DMS 114 small cell lung
[45] = tested on: RXF 393 renal
[46] = tested on: CCRF-CEM leukemia
[47] = tested on: COLO 205 colon
[48] = tested on: CAKI-1 renal
[49] = tested on: M14 melanoma
[50] = tested on: KM20L2 colon
[51] = tested on: SF-295 CNS
[52] = tested on: A498 renal

O=NN(CCCl)C(=O)NCCCl
GI50 [1]: 193 µM | TGI [1]: 151 µM and > 262 µM | GI50 [2]: 60 µM and 98.6 µM | TGI [2]: 141 µM and 113 µM and > 263 µM | GI50 [3]: 42.7 µM and > 352 µM | TGI [3]: 83.3 µM and 161 µM and > 398 µM | TGI [4]: 135 µM | GI50 [5]: 47.7 µM and 102 µM | TGI [5]: 107 µM and 113 µM and 179 µM | GI50 [6]: 56.4 µM and 209 µM | TGI [6]: 133 µM and 166 µM and > 361 µM | GI50 [7]: 31.3 µM and 146 µM | TGI [7]: 66.4 µM and 124 µM and > 306 µM | GI50 [8]: 34.3 µM and 118 µM | TGI [8]: 120 µM and 198 µM and 260 µM | GI50 [9]: 55.9 µM and 216 µM | TGI [9]: 108 µM and 161 µM and > 294 µM | TGI [10]: 115 µM and 178 µM and > 500 µM | GI50 [11]: 59.6 µM and > 279 µM | TGI [11]: 144 µM and 173 µM and > 373 µM | GI50 [12]: 210 µM | TGI [12]: 250 µM and 313 µM and > 379 µM | GI50 [13]: 240 µM | TGI [13]: 185 µM and 151 µM and > 310 µM | GI50 [14]: 30.5 µM and 11.3 µM | TGI [14]: 89.3 µM and 67.3 µM and 28.9 µM | GI50 [15]: 47.3 µM and 251 µM | TGI [15]: 92.8 µM and 148 µM and > 300 µM | GI50 [16]: 62.5 µM and 112 µM | TGI [16]: 155 µM and 156 µM and 256 µM | GI50 [17]: 31 µM | TGI [17]: 98.4 µM and 138 µM and > 259 µM | TGI [18]: 160 µM | TGI [19]: 176 µM | TGI [20]: 198 µM | GI50 [21]: 95 µM and 296 µM | TGI [21]: 250 µM and 364 µM and > 377 µM | GI50 [22]: 52.3 µM and > 500 µM | TGI [22]: 104 µM and 184 µM and > 500 µM | GI50 [23]: 64.3 µM and 281 µM | TGI [23]: 135 µM and 209 µM and > 389 µM | GI50 [24]: 74.7 µM and 234 µM | TGI [24]: 250 µM and 220 µM and > 331 µM | GI50 [25]: 231 µM | TGI [25]: 250 µM and 191 µM and > 312 µM | GI50 [26]: 63.5 µM and 260 µM | TGI [26]: 161 µM and 201 µM and > 370 µM | TGI [27]: 203 µM | GI50 [28]: 40.1 µM and 102 µM | TGI [28]: 102 µM and 130 µM and 229 µM | GI50 [29]: 38.5 µM | TGI [29]: 122 µM and 97.7 µM | GI50 [30]: 75.9 µM | TGI [30]: 148 µM and 186 µM and 179 µM | GI50 [31]: 31 µM and 84.1 µM | TGI [31]: 92.6 µM and 116 µM and 190 µM | GI50 [32]: > 272 µM | TGI [32]: 228 µM and 182 µM and > 367 µM | GI50 [33]: 51.3 µM and > 320 µM | TGI [33]: 164 µM and 197 µM and > 437 µM | TGI [34]: 44.6 µM and 206 µM and 280 µM | GI50 [35]: 64.4 µM | TGI [35]: 170 µM and 172 µM | TGI [36]: 48 µM | TGI [37]: 40.9 µM | GI50 [38]: 195 µM | TGI [38]: 127 µM and 128 µM and > 421 µM | GI50 [39]: 210 µM | TGI [39]: 158 µM and > 301 µM | GI50 [40]: 226 µM and > 500 µM | TGI [40]: 250 µM and 211 µM and > 500 µM | GI50 [41]: > 258 µM | TGI [41]: 238 µM and 159 µM and > 369 µM | GI50 [42]: 61.8 µM and 224 µM | TGI [42]: 164 µM and 160 µM and > 295 µM | GI50 [43]: 44.9 µM and > 151 µM | TGI [43]: 169 µM and 91.9 µM and > 260 µM | TGI [44]: 142 µM | GI50 [45]: 45.3 µM and > 238 µM | TGI [45]: 86.6 µM and 149 µM and > 299 µM | GI50 [46]: 46 µM and 33.6 µM | TGI [46]: 142 µM and 97.8 µM and 65.6 µM | GI50 [47]: 47.2 µM and 202 µM | TGI [47]: 90.2 µM and 144 µM and > 286 µM | GI50 [48]: 44.9 µM and 186 µM | TGI [48]: 103 µM and 150 µM and > 278 µM | GI50 [49]: 215 µM | TGI [49]: 234 µM and 158 µM and > 308 µM | TGI [50]: 205 µM | GI50 [51]: 36.3 µM and 123 µM | TGI [51]: 250 µM and 126 µM and > 380 µM | GI50 [52]: 178 µM | TGI [52]: 250 µM and 221 µM
